Assay results taken from patent US8309056B2, “Method for determination of oxidative stress” (Keio University, priority 2006, dated 2012).

Columns and labels:
[1] = tested on: serum metabolites; experiment: Metabolites in serum of AAP-administered mice vs control mice, measured by CE-TOFMS; assay type: in vivo
Method: Male mice fasted overnight were anesthetized by intraperitoneal injection of pentobarbital sodium (60 mg per Kg body weight). […] Metabolites having a mass of 1000 or less were comprehensively measured using CE-TOFMS under measuring conditions for cationic metabolites and anionic metabolites. As a capillary, a fused silica capillary having an inner diameter of 50 μm, an outer diameter of 350 μm, and a total length of 100 cm was used. As a buffer, 1 M formic acid (pH is about 1.8) was used. Measurement was performed with an applied voltage of +30 kV and a capillary temperature of 20° C. A sample was injected at 50 mbar for 3 seconds using the pressure method. In TOFMS, the positive ion mode was employed and the ionization, fragmentor, skimmer, and Oct RFV voltages were set at 4 kV, 75 V, 50 V, and 125 V, respectively. Nitrogen was used as a drying gas, which was set at a temperature of 300° C. and a pressure of 10 psig. Methanol solution (50%) was used as a sheath liquid. To this solution, reserpine (m/z 609.2807) was added at 0.5 μM for mass calibration and the solution was delivered at 10μ/min. All the obtained data were automatically calibrated using the mass of reserpine (m/z 609.2807) and methanol adduct ion (m/z 83.0703). As a capillary, SMILE(+) capillary having an inner diameter of 50 μm, an outer diameter of 350 μm, and a total length of 100 cm was used. As a buffer, 50 mM ammonium acetate (pH 8.5) was used. Measurement was performed with an applied voltage of -30 kV and a capillary temperature of 20° C. A sample was injected at 50 mbar for 30 seconds using the pressure method. In TOFMS, the negative ion mode was employed and the ionization, fragmentor, skimmer, and Oct RFV voltage were set at 3.5 kV, 100 V, 50 V, and 200 V, respectively. Nitrogen was used as a drying gas, which was set at a temperature of 300° C. and a pressure of 10 psig. Ammonium acetate (5 mM) in 50% methanol solution was used as a sheath liquid. To this solution, 20 μM PIPES and 1 μM reserpine (m/z 609.2807) was added for mass calibration and was delivered at 10μ/min. […]

[2] = tested on: glutathione biosynthesis pathway in the liver; experiment: Metabolites in liver of agent-administered mice vs control mice, measured by CE-TOFMS; assay type: in vivo
Method: Male mice fasted overnight were anesthetized by intraperitoneal injection of pentobarbital sodium (60 mg per Kg body weight). […] The liver (about 300 mg) harvested from mice was immediately plunged into 1 ml of methanol containing internal standards and homogenized to inactivate enzymes and stop increase in metabolism Then, 500 μl of pure water was added and 300 μl of the solution was collected. 200 μl of chloroform was added to the solution, which was then thoroughly mixed. The solution was centrifuged at 15000 rpm at 4° C. for 15 minutes. After left standing, the separated 300 μl-water-methanol phase was centrifugally filtered through an ultrafiltration filter (5 kDa cutoff) to remove proteins. The filtrate was lyophilized and 50 μl of […]® ultrapure water was added thereto prior to CE-MS (CE-TOFMS) analysis. Metabolites having a mass of 1000 or less were comprehensively measured using CE-TOFMS under measuring conditions for cationic metabolites and anionic metabolites. As a capillary, a fused silica capillary having an inner diameter of 50 μm, an outer diameter of 350 μm, and a total length of 100 cm was used. As a buffer, 1 M formic acid (pH is about 1.8) was used. Measurement was performed with an applied voltage of +30 kV and a capillary temperature of 20° C. A sample was injected at 50 mbar for 3 seconds using the pressure method. In TOFMS, the positive ion mode was employed and the ionization, fragmentor, skimmer, and Oct RFV voltages were set at 4 kV, 75 V, 50 V, and 125 V, respectively. Nitrogen was used as a drying gas, which was set at a temperature of 300° C. and a pressure of 10 psig. Methanol solution (50%) was used as a sheath liquid. To this solution, reserpine (m/z 609.2807) was added at 0.5 μM for mass calibration and the solution was delivered at 10μ/min. All the obtained data were automatically calibrated using the mass of reserpine (m/z 609.2807) and methanol adduct ion (m/z 83.0703). As a capillary, SMILE(+) capillary having an inner diameter of 50 μm, an outer diameter of 350 μm, and a total length of 100 cm was used. As a buffer, 50 mM ammonium acetate (pH 8.5) was used. Measurement was performed with an applied voltage of -30 kV and a capillary temperature of 20° C. A sample was injected at 50 mbar for 30 seconds using the pressure method. In TOFMS, the negative ion mode was employed and the ionization, fragmentor, skimmer, and Oct RFV voltage were set at 3.5 kV, 100 V, 50 V, and 200 V, respectively. Nitrogen was used as a drying gas, which was set at a temperature of 300° C. and a pressure of 10 psig. Ammonium acetate (5 mM) in 50% methanol solution was used as a sheath liquid. To this solution, 20 μM PIPES and 1 μM reserpine (m/z 609.2807) was added for mass calibration and was delivered at 10μ/min. All the obtained data were automatically calibrated using the mass of reserpine (m/z 609.2807), monovalent PIPES (m/z 301.0534), and divalent PIPES (m/z 150.0230). […] The extracts were comprehensively and quantitatively analyzed with a capillary electrophoresis-mass spectrometer (CE-MS) or the like. […] Ophthalmic acid preparation was obtained and compared with the unknown substance.

[3] = at 1 and 2 hours after administration (time course)
[4] = time course 1-24 hours after administration
[5] = 2 hours after administration, vs control mice

| SMILES | ophthalmic acid in serum [1, 3] | GSH in serum [1, 4] | GSSH in serum [1, 4] | GSH in liver [2, 5] | all the substances in the glutathione biosynthesis pathway in the liver [2, 5] | ophthalmic acid in liver [2, 5] | oxidized glutathione (GSSG) in liver [2, 5] | γ-Glu-2-aminobutyric acid (γ-Glu-2AB) in liver [2, 5] | GSH in liver [2, 3] | ophthalmic acid in liver [2, 3] | GSSH in liver [2, 4] | γ-Glu-Cys in liver [2, 5] |
| --- | --- | --- | --- | --- | --- | --- | --- | --- | --- | --- | --- | --- |
| CC(=O)Nc1ccc(O)cc1 [AAP, Acetaminophen] | dramatically increased | not detected | a behavior similar to that of GSH in liver | Dramatically decreased | decrease | increase | Dramatically decreased | increase | rapidly decreased | dramatically increased | a behavior similar to that of GSH in liver |  |
| CCCCS(=N)(=O)CCC(N)C(=O)O (stereo not drawn) [BSO, buthionine sulfoximine] |  |  |  | remarkably decreased |  | remarkably decreased |  | remarkably decreased |  |  |  | remarkably decreased |
